{"source": "ChEMBL document CHEMBL3885881", "about": "“DrugMatrix”", "species_on_record": "Rattus norvegicus", "assay": "DrugMatrix - Regimen: Daily Repeat", "assay_type": "toxicity, organism-based, Sprague-Dawley", "parameters": "regimen Daily Repeat, gender Male, age 6-8 weeks", "conditions": "in vivo, po, 20 mg/kg, route oral GAVAGE, dose level Low, vehicle .5 % CMC; for ABSOLUTE BASOPHIL / ABSOLUTE EOSINOPHIL / ABSOLUTE LYMPHOCYTE / ABSOLUTE MONOCYTE / ABSOLUTE SEGMENTED NEUTROPHIL / BASOPHIL / EOSINOPHIL / ERYTHROCYTE COUNT / HEMATOCRIT / HEMOGLOBIN / LEUKOCYTE COUNT / LYMPHOCYTE / MEAN CORPUSCULAR HEMOGLOBIN / MEAN CORPUSCULAR HEMOGLOBIN CONCENTRATION / MEAN CORPUSCULAR VOLUME / MONOCYTE / NEUTROPHIL / NUCLEATED RED BLOOD CELLS / PLATELET COUNT: tissue Blood", "key": {"[1]": {"conditions": "72 h, tissue Plasma, time 3 day"}, "[2]": {"conditions": "120 h, tissue Plasma, time 5 day"}}}
{"compound": "NCCCC[C@H](N[C@@H](CCc1ccccc1)C(=O)O)C(=O)N1CCC[C@H]1C(=O)O", "note": "[LISINOPRIL ANHYDROUS]", "values": [{"measurement": "ABSOLUTE BASOPHIL", "setting": "72 h, time 3 day", "value": 0, "unit": "CELLS/uL"}, {"measurement": "ABSOLUTE EOSINOPHIL", "setting": "72 h, time 3 day", "value": 69, "unit": "CELLS/uL"}, {"measurement": "ABSOLUTE LYMPHOCYTE", "setting": "72 h, time 3 day", "value": 9482.67, "unit": "CELLS/uL"}, {"measurement": "ABSOLUTE MONOCYTE", "setting": "72 h, time 3 day", "value": 143.67, "unit": "CELLS/uL"}, {"measurement": "ABSOLUTE SEGMENTED NEUTROPHIL", "setting": "72 h, time 3 day", "value": 904.67, "unit": "CELLS/uL"}, {"measurement": "BASOPHIL", "setting": "72 h, time 3 day", "value": 0, "unit": "%"}, {"measurement": "EOSINOPHIL", "setting": "72 h, time 3 day", "value": 0.67, "unit": "%"}, {"measurement": "ERYTHROCYTE COUNT", "setting": "72 h, time 3 day", "value": 5.65, "unit": "x10E6/uL"}, {"measurement": "HEMATOCRIT", "setting": "72 h, time 3 day", "value": 34.1, "unit": "%"}, {"measurement": "HEMOGLOBIN", "setting": "72 h, time 3 day", "value": 13.3, "unit": "G/DL"}, {"measurement": "LEUKOCYTE COUNT", "setting": "72 h, time 3 day", "value": 10.6, "unit": "x10E3/uL"}, {"measurement": "LYMPHOCYTE", "setting": "72 h, time 3 day", "value": 89.33, "unit": "%"}, {"measurement": "MEAN CORPUSCULAR HEMOGLOBIN", "setting": "72 h, time 3 day", "value": 23.63, "unit": "pg"}, {"measurement": "MEAN CORPUSCULAR HEMOGLOBIN CONCENTRATION", "setting": "72 h, time 3 day", "value": 39, "unit": "G/DL"}, {"measurement": "MEAN CORPUSCULAR VOLUME", "setting": "72 h, time 3 day", "value": 60.5, "unit": "fL"}, {"measurement": "MONOCYTE", "setting": "72 h, time 3 day", "value": 1.33, "unit": "%"}, {"measurement": "NEUTROPHIL", "setting": "72 h, time 3 day", "value": 8.67, "unit": "%"}, {"measurement": "NUCLEATED RED BLOOD CELLS", "setting": "72 h, time 3 day", "value": "0 /100WBC"}, {"measurement": "PLATELET COUNT", "setting": "72 h, time 3 day", "value": 1392, "unit": "x10E3/uL"}, {"measurement": "ALANINE AMINOTRANSFERASE", "setting": "[1]", "value": 44, "unit": "u/L"}, {"measurement": "ALBUMIN", "setting": "[1]", "value": 4.1, "unit": "G/DL"}, {"measurement": "ALKALINE PHOSPHATASE", "setting": "[1]", "value": 387, "unit": "u/L"}, {"measurement": "ASPARTATE AMINOTRANSFERASE", "setting": "[1]", "value": 70, "unit": "u/L"}, {"measurement": "BLOOD UREA NITROGEN", "setting": "[1]", "value": 22.67, "unit": "mg/dL"}, {"measurement": "CARBON DIOXIDE", "setting": "[1]", "value": 23.33, "unit": "mmol/L"}, {"measurement": "CHLORIDE", "setting": "[1]", "value": 101, "unit": "MEQ/L"}, {"measurement": "CHOLESTEROL", "setting": "[1]", "value": 80.33, "unit": "mg/dL"}, {"measurement": "CREATINE PHOSPHOKINASE", "setting": "[1]", "value": 236.67, "unit": "u/L"}, {"measurement": "CREATININE", "setting": "[1]", "value": 0.18, "unit": "mg/dL"}, {"measurement": "GLUCOSE", "setting": "[1]", "value": 166, "unit": "mg/dL"}, {"measurement": "LACTATE DEHYDROGENASE", "setting": "[1]", "value": 94.33, "unit": "u/L"}, {"measurement": "LIPASE", "setting": "[1]", "value": 10, "unit": "u/L"}, {"measurement": "PHOSPHORUS", "setting": "[1]", "value": 11.87, "unit": "mg/dL"}, {"measurement": "SODIUM", "setting": "[1]", "value": 140.73, "unit": "MEQ/L"}, {"measurement": "TOTAL BILIRUBIN", "setting": "[1]", "value": 0.23, "unit": "mg/dL"}, {"measurement": "TOTAL PROTEIN", "setting": "[1]", "value": 5.83, "unit": "G/DL"}, {"measurement": "URIC ACID", "setting": "[1]", "value": 2.13, "unit": "mg/dL"}, {"measurement": "ABSOLUTE BASOPHIL", "setting": "120 h, time 5 day", "value": 0, "unit": "CELLS/uL"}, {"measurement": "ABSOLUTE EOSINOPHIL", "setting": "120 h, time 5 day", "value": 0, "unit": "CELLS/uL"}, {"measurement": "ABSOLUTE LYMPHOCYTE", "setting": "120 h, time 5 day", "value": 11890.67, "unit": "CELLS/uL"}, {"measurement": "ABSOLUTE MONOCYTE", "setting": "120 h, time 5 day", "value": 94.67, "unit": "CELLS/uL"}, {"measurement": "ABSOLUTE SEGMENTED NEUTROPHIL", "setting": "120 h, time 5 day", "value": 1714.67, "unit": "CELLS/uL"}, {"measurement": "BASOPHIL", "setting": "120 h, time 5 day", "value": 0, "unit": "%"}, {"measurement": "EOSINOPHIL", "setting": "120 h, time 5 day", "value": 0, "unit": "%"}, {"measurement": "ERYTHROCYTE COUNT", "setting": "120 h, time 5 day", "value": 6.1, "unit": "x10E6/uL"}, {"measurement": "HEMATOCRIT", "setting": "120 h, time 5 day", "value": 36.67, "unit": "%"}, {"measurement": "HEMOGLOBIN", "setting": "120 h, time 5 day", "value": 14.77, "unit": "G/DL"}, {"measurement": "LEUKOCYTE COUNT", "setting": "120 h, time 5 day", "value": 13.7, "unit": "x10E3/uL"}, {"measurement": "LYMPHOCYTE", "setting": "120 h, time 5 day", "value": 87, "unit": "%"}, {"measurement": "MEAN CORPUSCULAR HEMOGLOBIN", "setting": "120 h, time 5 day", "value": 24.23, "unit": "pg"}, {"measurement": "MEAN CORPUSCULAR HEMOGLOBIN CONCENTRATION", "setting": "120 h, time 5 day", "value": 40.3, "unit": "G/DL"}, {"measurement": "MEAN CORPUSCULAR VOLUME", "setting": "120 h, time 5 day", "value": 60.07, "unit": "fL"}, {"measurement": "MONOCYTE", "setting": "120 h, time 5 day", "value": 0.67, "unit": "%"}, {"measurement": "NEUTROPHIL", "setting": "120 h, time 5 day", "value": 12.33, "unit": "%"}, {"measurement": "NUCLEATED RED BLOOD CELLS", "setting": "120 h, time 5 day", "value": "0 /100WBC"}, {"measurement": "PLATELET COUNT", "setting": "120 h, time 5 day", "value": 1320.33, "unit": "x10E3/uL"}, {"measurement": "ALANINE AMINOTRANSFERASE", "setting": "[2]", "value": 51.33, "unit": "u/L"}, {"measurement": "ALBUMIN", "setting": "[2]", "value": 4.53, "unit": "G/DL"}, {"measurement": "ALKALINE PHOSPHATASE", "setting": "[2]", "value": 401, "unit": "u/L"}, {"measurement": "ASPARTATE AMINOTRANSFERASE", "setting": "[2]", "value": 81.67, "unit": "u/L"}, {"measurement": "BLOOD UREA NITROGEN", "setting": "[2]", "value": 22.33, "unit": "mg/dL"}, {"measurement": "CARBON DIOXIDE", "setting": "[2]", "value": 27.67, "unit": "mmol/L"}, {"measurement": "CHLORIDE", "setting": "[2]", "value": 96.33, "unit": "MEQ/L"}, {"measurement": "CHOLESTEROL", "setting": "[2]", "value": 70.67, "unit": "mg/dL"}, {"measurement": "CREATINE PHOSPHOKINASE", "setting": "[2]", "value": 297.33, "unit": "u/L"}, {"measurement": "CREATININE", "setting": "[2]", "value": 0.22, "unit": "mg/dL"}, {"measurement": "GLUCOSE", "setting": "[2]", "value": 158, "unit": "mg/dL"}, {"measurement": "LACTATE DEHYDROGENASE", "setting": "[2]", "value": 249, "unit": "u/L"}, {"measurement": "LIPASE", "setting": "[2]", "value": 9.67, "unit": "u/L"}, {"measurement": "PHOSPHORUS", "setting": "[2]", "value": 11.77, "unit": "mg/dL"}, {"measurement": "SODIUM", "setting": "[2]", "value": 139.17, "unit": "MEQ/L"}, {"measurement": "TOTAL BILIRUBIN", "setting": "[2]", "value": 0.17, "unit": "mg/dL"}, {"measurement": "URIC ACID", "setting": "[2]", "value": 2, "unit": "mg/dL"}]}
